Test results from ChEMBL document CHEMBL1141483, “Design and synthesis of 1,3-diarylurea derivatives as selective cyclooxygenase (COX-2) inhibitors” (Bioorg Med Chem Lett, 2008).

target: T1, Prostaglandin G/H synthase 1 (Ovis aries, UniProt P05979)
T1 sequence (P05979 whole entry): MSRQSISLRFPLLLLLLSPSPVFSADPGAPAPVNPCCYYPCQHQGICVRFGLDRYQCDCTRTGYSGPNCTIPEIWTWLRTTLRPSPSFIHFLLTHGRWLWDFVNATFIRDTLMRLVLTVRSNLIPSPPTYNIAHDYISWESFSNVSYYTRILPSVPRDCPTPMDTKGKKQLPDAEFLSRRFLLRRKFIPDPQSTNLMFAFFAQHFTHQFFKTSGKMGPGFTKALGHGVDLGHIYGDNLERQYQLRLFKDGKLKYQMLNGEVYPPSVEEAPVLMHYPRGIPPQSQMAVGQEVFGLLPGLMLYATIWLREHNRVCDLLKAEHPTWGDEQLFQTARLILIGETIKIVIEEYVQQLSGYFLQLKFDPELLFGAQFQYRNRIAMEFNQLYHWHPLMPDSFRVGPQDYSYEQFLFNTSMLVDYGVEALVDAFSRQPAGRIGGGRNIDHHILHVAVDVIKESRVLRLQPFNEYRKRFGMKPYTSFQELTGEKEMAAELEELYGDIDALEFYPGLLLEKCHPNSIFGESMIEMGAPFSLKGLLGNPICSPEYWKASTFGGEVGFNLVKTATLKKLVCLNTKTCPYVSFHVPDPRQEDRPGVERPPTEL
Description: Inhibition of ovine COX1 by chemiluminescent assay

| Structure (SMILES) | IC50 [µM] |
| --- | --- |
| CS(=O)(=O)c1ccc(NC(=O)Nc2ccccc2)cc1 | 9.2 |
| CS(=O)(=O)c1ccc(NC(=O)Nc2ccc(F)cc2)cc1 | 21.8 |
| COc1ccc(NC(=O)Nc2ccc(S(C)(=O)=O)cc2)cc1 | 22.4 |

Results, then the molecule that gave them:

| IC50 [µM] | Structure (SMILES) |
| --- | --- |
| 21.5 | CS(=O)(=O)c1ccc(NC(=O)Nc2ccc(Cl)cc2)cc1 |
| 12.5 | Cc1ccc(NC(=O)Nc2ccc(S(C)(=O)=O)cc2)cc1 |
